Test results taken from article PMC12388496, “Discovery of (E)-1,3-Diphenyl-2-Propen-1-One Derivatives as Potent and Orally Active NLRP3 Inflammasome Inhibitors for Colitis” (Molecules, 2025).

Tests used:
[1] = system: IL-1β secretion in BMDM cells (NLRP3 inflammasome); assay: ELISA of IL-1β secretion in LPS/nigericin-treated BMDM cells; type: cell-based; details: Mus musculus
Procedure: When L929 cells reach the logarithmic phase, collect the cell supernatant. Filter the supernatant using a 0.22 μm filter and store it at −20 °C for future use. The 7-week-old C57BL/6 mice were selected as the source of primary bone marrow macrophages. The mice were euthanized using the cervical dislocation method. The ends of the femurs were cut, and the bone marrow was flushed into a 15 mL centrifuge tube using a 5 mL syringe. Once all the bone marrow was collected, an appropriate amount of red blood cell lysis buffer was added to the centrifuge tube. The mixture was incubated for 3–5 min, with repeated pipetting to thoroughly lyse the red blood cells. The cells were then centrifuged and collected. Add 30–40% L929 cell supernatant or M-CSF stimulatory factor to the culture dish. Culture the cells in a cell incubator at 37 °C with 5% CO2. Observe the cell condition daily, and once most cells have adhered to the surface, proceed with subsequent experiments.
Inoculate 1.0 × 10^5 BMDMs cells per well into a 96 well plate and culture overnight. Stimulate the cells with lipopolysaccharide (LPS) at a concentration of 0.2 μg/mL for 3 h, then add different concentrations of the test compounds and incubate for 30 min. Finally, add Nigericin at a concentration of 10 μM to continue the induction for 30 min. Collect the cell supernatant and measure the IL-1β secretion level in the supernatant using an ELISA kit, following the instructions provided, and calculate the IC50 value based on the relevant calculations. To ensure the accuracy and reliability of the experimental results, all experiments were repeated three times, with each experiment performed independently.

THP-1 cells = assay: LDH release assay; type: cell-based; details: NLRP3 inflammasome activation by LPS/Nigericin
From the text: Pyroptosis is a form of programmed cell death, typically triggered by the activation of inflammasomes within the cell. It is characterized by the rupture of the cell membrane, releasing cellular contents (such as Lactate Dehydrogenase, LDH), which enhances the inflammatory response. Unlike apoptosis, pyroptosis is initiated through the activation of inflammasomes, involving distinct molecular mechanisms, and is often accompanied by cell swelling and rupture. In contrast, apoptosis is triggered by the activation of Caspase-3, leading to systemic degradation within the cell while maintaining the integrity of the cell membrane. The cell undergoes controlled self-degradation without provoking an immune response. Inhibiting pyroptosis is crucial for alleviating inflammation and promoting tissue repair. To investigate the effect of compound F14 on pyroptosis, we employed flow cytometry and lactate dehydrogenase (LDH) release assays for systematic analysis. Flow cytometry was used to assess the impact of F14 on pyroptosis under inflammatory conditions.
Count the THP-1 cells and inoculate them into a 96-well plate. Add 50 ng/mL PMA and culture the cells at 37 °C in a 5% CO2 incubator for 24 h. Add LPS-containing medium and stimulate the cells for 3 h to induce an inflammatory response. Add F14 and incubate for 1 h, then add Nigericin and stimulate for 30 min to induce pyroptosis. […]

NLRP3 inflammasome [2] = assay: NLRP3 inflammasome activation by ATP, MSU and Nigericin in BMDMs (ELISA of IL-1β); type: cell-based, mouse; details: F14 10 μM; LPS-primed BMDMs stimulated with ATP, MSU or Nigericin
From the text: (§1) The NLRP3 inflammasome can be activated by various stimuli, such as microbial toxins and urate crystals. This process plays a central role in the pathogenesis of many inflammatory diseases. To assess whether F14 exerts a broad-spectrum inhibitory effect on NLRP3 inflammasome activation, we used three different activators—ATP, MSU, and Nigericin to stimulate BMDMs. […] Among the inflammasome family, NLRC4 and AIM2 are also protein complexes involved in the innate immune response, playing key roles in inflammatory regulation during infection and tissue damage. Poly (dA:dT) was used to induce AIM2 activation, while S.typhi was employed to stimulate NLRC4 activation. […].
(§2) The LPS concentration was 200 ng/mL to pretreat BMDM cells for 3 h, then F14 (10 μM) was added to treat the cells for 30 min, and then each inducer—Nigericin (10 μM, 0.5 h), ATP (2.5 mM, 0.5 h), MSU (150 μg/mL, 4 h), S.typhi (4 h), and poly-(dA:dT) (0.5 μg/mL, 4 h)—were added for stimulation. (A) F14 has a broad-spectrum inhibitory effect on NLRP3 inflammasome activation. (B) F14 has a specific inhibitory effect on NLRP3 inflammasome activation. Data are presented as the mean ± SEM (n = 3). *** p < 0.001 vs. the model group. NS, not significant.

AIM2 inflammasome = AIM2 inflammasome activation induced by poly (dA:dT) in BMDMs; type: cell-based, mouse; details: F14 10 μM, LPS-primed BMDMs
From the text: as §1, §2

NLRP3 inflammasome [3] = assay: Western blot of NLRP3 inflammasome proteins in BMDMs; type: cell-based, mouse; details: BMDM, LPS and Nigericin
Procedure: To further investigate the potential molecular mechanisms of compound F14, an in vitro inflammation model was constructed using BMDM cells.
Inoculate BMDMs cells into a 6-well plate with 4-6 × 10^6 cells per well and culture overnight. Pre-treat with LPS (200 ng/mL) for 3 h, then treat with different concentrations of compound F14 for 30 min, and add Nigericin (10 µM) to activate BMDMs for 30 min. Add RIPA (Beyotime Biotechnology, Shanghai, China) for lysis. Select SDS-PAGE with different concentrations for electrophoresis, and then transfer to PVDF membrane (Millipore Immobilon-P, Burlington, MA, USA). Incubate the antibody imprint overnight at 4°C, and then incubate with HRP conjugated secondary antibody for 1 h.

BMDM cells = assay: MitoTracker/MitoSOX staining and ROS detection (DCFH-DA flow cytometry) in BMDMs; type: cell-based, mouse; details: LPS and Nigericin
From the text: Mitochondrial dysfunction and excessive production of reactive oxygen species (ROS) are key upstream signaling events in the activation of the NLRP3 inflammasome. To investigate whether compound F14 affects mitochondrial damage and ROS production, we performed staining experiments using MitoTracker and MitoSOX, followed by imaging and analysis using a confocal microscope. […] To further verify the effect of F14 on ROS levels, we used flow cytometry to measure intracellular ROS levels in BMDM cells stimulated with Nigericin.
BMDMs were seeded at a density of 1.0 × 10^6 cells per well in a 6-well plate, and the cell treatment was performed as described above. DCFH-DA probe was added to each well at a 1:1000 dilution (prepared in serum-free medium), and the cells were incubated at 37 °C in the dark for 20 min. The cells were gently mixed every 5 min to ensure uniform probe penetration. The cells were washed three times with PBS, and ROS levels were measured using flow cytometry (excitation/emission wavelengths: 488/525 nm).

Cc1ccc(C(=O)/C=C/c2cccc(O)c2)c(C)c1 [Compound F14, (E)-1-(2,4-dimethylphenyl)-3-(3-hydroxyphenyl)propyl-2-en-1-one]
inhibition at 20 µM ([1]; 20 µM, LPS/nigericin-treated BMDM cells, mean ± S.E.M. (n = 3), read-out: IL-1β Inhibition Rate (%)): 95.4 ± 2.56% | IC50 ([1]; BMDM, LPS/nigericin, three independent experiments, read-out: IL-1β release IC50 in BMDMs): 740 nM | LDH release (THP-1 cells): decreased in a concentration-dependent manner | protein expression levels of mature IL-1β (ELISA) (NLRP3 inflammasome [2]): significantly reduced | activation of AIM2 inflammasome (AIM2 inflammasome): no effect | protein expression levels of pro-IL-1β, pro-caspase-1, ASC, NEK7 and NLRP3 (NLRP3 inflammasome [3]): no significant effect | protein levels of IL-1β and caspase-1 in the cell supernatant (NLRP3 inflammasome [3]): concentration-dependent inhibitory effect | mitochondrial membrane potential and fluorescence intensity of mitochondrial superoxide anions (BMDM cells; MitoTracker, MitoSOX): no significant improvement | total ROS levels (BMDM cells; flow cytometry): no significant change
